Data on one compound can be found in paper PMC11357990, “A first-in-class selective inhibitor of EGFR and PI3K offers a single-molecule approach to targeting adaptive resistance” (Nature Cancer, 2024).

One assay has as its target T1, PPARγ (Homo sapiens, UniProt P37231).
T1 construct: gene PPARG; L232-Y505 of UniProt entry P37231-2
The assay is described as follows: X-ray cocrystal structure ([…] Å); TR-FRET competitive binding.

The next assay concerns the target ACE (h) (Homo sapiens, UniProt P12821). On the set-up: Eurofins SafetyScreen 87 enzyme part: inhibition of control enzyme activity, single concentration. To be noted: mean of 2, 10 µM, inhibitor.
For another assay, the target named is IRK (h) (InsR) (Homo sapiens, UniProt P06213). On the set-up: Eurofins SafetyScreen 87 enzyme part: inhibition of control enzyme activity, single concentration. Particulars: mean of 2, 10 µM, inhibitor.
The next assay deals with Lck kinase (h) (Homo sapiens, UniProt P06239). Further details: Eurofins SafetyScreen 87 enzyme part: inhibition of control enzyme activity, single concentration. Particulars: mean of 2, 10 µM, inhibitor.
For another assay, the target named is PDE3A (h) (Homo sapiens, UniProt Q14432). Further details: Eurofins SafetyScreen 87 enzyme part: inhibition of control enzyme activity, single concentration. Particulars: mean of 2, 10 µM, inhibitor.
Another assay concerns the target T2, PKCalpha (h) (Homo sapiens, UniProt P17252).
T2 construct: gene PRKCA
Further details: Eurofins SafetyScreen 87 enzyme part: inhibition of control enzyme activity, single concentration. To be noted: mean of 2, 10 µM, inhibitor.

The target of another assay is T3, HER2 (Homo sapiens, UniProt P04626).
T3 construct: gene ERBB2; Km ATP
The assay is described as follows: biochemical. On the set-up: Purified kinase inhibition, Z'-LYTE (HER, mTOR, DNA-PK) or Adapta (PI3K), ATP at Km apparent. How it is done: (§1) IC50 values were determined at a concentration of ATP corresponding to the Km apparent for that kinase.

The target of a further assay is T4, HER4 (Homo sapiens, UniProt Q15303).
T4 construct: gene ERBB4; Km ATP
The assay is described as follows: biochemical. Further details: Purified kinase inhibition, Z'-LYTE (HER, mTOR, DNA-PK) or Adapta (PI3K), ATP at Km apparent. How it is done: as §1

In a further assay the target is T5, PI3Kβ (Homo sapiens, UniProt P42338).
T5 construct: gene PIK3CB; Km ATP
The assay is described as follows: biochemical. Further details: Purified kinase inhibition, Z'-LYTE (HER, mTOR, DNA-PK) or Adapta (PI3K), ATP at Km apparent. On the procedure: as §1

For a further assay, the target named is T6, mTOR (Homo sapiens, UniProt P42345).
T6 construct: Km ATP
The assay is described as follows: biochemical. Further details: Purified kinase inhibition, Z'-LYTE (HER, mTOR, DNA-PK) or Adapta (PI3K), ATP at Km apparent. On the procedure: as §1

In another assay the target is EGFR (Homo sapiens, UniProt P00533). The assay is described as follows: X-ray cocrystal structure ([…] Å); purified kinase assay IC50. The class given is biochemical. On the set-up: G696-G1022.
The next assay deals with PI3Kα (Homo sapiens, UniProt P42336). The assay is described as follows: biochemical kinase assay at ATP Km apparent. On the set-up: gene PIK3CA.
Sequence of PI3Kα (P42336 whole entry): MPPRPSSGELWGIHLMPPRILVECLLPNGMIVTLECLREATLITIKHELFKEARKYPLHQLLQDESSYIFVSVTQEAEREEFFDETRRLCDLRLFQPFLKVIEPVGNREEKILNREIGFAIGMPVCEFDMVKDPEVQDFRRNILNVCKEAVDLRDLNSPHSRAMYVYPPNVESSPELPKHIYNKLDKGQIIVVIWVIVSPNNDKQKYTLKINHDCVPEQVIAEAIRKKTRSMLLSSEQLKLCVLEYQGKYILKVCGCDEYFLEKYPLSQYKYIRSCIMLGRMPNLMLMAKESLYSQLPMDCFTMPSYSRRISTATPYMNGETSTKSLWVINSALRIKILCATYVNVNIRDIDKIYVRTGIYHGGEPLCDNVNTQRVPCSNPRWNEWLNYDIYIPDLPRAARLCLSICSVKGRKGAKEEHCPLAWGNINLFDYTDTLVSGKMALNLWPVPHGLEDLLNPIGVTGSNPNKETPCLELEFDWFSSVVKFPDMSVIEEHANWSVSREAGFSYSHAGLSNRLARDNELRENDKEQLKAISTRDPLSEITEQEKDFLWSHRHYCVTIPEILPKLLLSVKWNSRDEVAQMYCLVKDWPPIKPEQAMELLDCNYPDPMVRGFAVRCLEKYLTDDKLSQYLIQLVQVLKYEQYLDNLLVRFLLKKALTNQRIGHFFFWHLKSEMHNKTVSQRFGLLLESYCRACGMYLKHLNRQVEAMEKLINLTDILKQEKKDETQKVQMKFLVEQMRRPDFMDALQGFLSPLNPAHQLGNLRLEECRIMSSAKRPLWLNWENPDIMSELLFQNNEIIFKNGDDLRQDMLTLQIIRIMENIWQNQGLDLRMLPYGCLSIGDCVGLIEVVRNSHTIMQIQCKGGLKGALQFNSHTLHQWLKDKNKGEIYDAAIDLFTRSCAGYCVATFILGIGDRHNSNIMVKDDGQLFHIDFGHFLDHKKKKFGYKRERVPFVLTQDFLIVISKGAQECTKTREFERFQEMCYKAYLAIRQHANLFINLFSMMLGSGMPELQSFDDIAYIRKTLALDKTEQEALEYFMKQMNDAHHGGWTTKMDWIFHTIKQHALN

Sequence of PDE3A (h) (Q14432 whole entry): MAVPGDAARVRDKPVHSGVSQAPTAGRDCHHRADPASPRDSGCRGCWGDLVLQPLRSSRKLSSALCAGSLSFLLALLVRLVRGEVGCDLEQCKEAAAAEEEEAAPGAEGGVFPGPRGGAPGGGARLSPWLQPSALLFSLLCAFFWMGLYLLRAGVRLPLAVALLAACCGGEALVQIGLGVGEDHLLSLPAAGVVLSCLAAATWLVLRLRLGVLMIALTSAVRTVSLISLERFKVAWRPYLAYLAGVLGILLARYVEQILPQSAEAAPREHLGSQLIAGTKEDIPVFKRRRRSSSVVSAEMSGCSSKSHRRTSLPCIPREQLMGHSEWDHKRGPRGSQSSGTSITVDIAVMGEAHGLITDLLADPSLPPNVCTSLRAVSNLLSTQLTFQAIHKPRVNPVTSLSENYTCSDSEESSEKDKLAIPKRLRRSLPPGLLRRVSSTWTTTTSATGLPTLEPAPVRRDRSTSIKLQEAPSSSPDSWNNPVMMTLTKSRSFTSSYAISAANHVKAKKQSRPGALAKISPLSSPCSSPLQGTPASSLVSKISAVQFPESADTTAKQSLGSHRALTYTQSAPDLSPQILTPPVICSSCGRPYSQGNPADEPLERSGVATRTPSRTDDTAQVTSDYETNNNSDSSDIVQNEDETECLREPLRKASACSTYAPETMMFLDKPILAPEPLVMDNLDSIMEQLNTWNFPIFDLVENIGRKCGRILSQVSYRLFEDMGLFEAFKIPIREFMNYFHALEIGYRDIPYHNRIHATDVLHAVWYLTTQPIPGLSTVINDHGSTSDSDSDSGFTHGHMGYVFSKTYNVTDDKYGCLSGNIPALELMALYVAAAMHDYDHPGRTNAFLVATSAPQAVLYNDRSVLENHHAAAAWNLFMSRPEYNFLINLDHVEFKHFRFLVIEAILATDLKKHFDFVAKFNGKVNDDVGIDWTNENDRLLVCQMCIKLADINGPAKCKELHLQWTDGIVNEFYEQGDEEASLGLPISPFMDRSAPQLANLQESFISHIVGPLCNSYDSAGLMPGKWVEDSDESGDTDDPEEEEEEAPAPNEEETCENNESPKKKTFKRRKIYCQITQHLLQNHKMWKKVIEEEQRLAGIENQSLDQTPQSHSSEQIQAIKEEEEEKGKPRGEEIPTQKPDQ
T4 sequence (Q15303 whole entry): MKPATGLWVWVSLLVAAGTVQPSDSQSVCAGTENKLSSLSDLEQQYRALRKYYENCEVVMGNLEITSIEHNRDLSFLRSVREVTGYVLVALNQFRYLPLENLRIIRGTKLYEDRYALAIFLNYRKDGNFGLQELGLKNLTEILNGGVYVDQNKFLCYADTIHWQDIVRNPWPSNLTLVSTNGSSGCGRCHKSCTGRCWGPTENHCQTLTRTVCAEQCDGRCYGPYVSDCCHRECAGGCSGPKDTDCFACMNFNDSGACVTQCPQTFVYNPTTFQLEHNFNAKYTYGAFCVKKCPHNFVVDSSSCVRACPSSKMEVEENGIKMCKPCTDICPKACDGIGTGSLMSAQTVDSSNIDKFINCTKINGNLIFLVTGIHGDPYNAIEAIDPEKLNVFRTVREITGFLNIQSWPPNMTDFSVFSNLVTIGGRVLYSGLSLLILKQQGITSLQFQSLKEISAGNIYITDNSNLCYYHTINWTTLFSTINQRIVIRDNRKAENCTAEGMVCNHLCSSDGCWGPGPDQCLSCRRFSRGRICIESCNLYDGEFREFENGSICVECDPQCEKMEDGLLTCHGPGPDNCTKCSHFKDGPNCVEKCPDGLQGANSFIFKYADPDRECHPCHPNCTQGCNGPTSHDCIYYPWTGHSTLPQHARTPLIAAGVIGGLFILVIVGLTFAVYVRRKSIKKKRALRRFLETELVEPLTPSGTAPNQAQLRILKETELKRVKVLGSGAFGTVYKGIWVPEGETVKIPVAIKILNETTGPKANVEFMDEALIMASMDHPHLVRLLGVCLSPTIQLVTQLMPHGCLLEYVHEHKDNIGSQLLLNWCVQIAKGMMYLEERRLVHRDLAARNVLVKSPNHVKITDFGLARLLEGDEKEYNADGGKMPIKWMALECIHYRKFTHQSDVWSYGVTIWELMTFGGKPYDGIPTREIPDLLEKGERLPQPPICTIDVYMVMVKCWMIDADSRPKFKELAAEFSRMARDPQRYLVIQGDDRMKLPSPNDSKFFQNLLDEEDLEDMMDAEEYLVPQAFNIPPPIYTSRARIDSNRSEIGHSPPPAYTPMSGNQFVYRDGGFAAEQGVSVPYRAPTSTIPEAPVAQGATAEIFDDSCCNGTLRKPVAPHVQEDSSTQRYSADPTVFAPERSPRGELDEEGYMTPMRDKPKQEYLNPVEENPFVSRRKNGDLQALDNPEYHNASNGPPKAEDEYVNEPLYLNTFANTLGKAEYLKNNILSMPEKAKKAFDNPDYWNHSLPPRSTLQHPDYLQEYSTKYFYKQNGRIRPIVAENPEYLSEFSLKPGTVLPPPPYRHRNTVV
T1 sequence (P37231 232-505): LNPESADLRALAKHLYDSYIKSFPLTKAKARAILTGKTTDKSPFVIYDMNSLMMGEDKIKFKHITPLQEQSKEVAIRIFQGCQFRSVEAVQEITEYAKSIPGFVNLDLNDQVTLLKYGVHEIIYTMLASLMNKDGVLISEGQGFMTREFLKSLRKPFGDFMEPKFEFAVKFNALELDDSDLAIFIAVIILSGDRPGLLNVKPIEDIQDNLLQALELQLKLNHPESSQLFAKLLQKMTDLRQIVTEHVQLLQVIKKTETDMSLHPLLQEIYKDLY
Sequence of Lck kinase (h) (P06239 whole entry): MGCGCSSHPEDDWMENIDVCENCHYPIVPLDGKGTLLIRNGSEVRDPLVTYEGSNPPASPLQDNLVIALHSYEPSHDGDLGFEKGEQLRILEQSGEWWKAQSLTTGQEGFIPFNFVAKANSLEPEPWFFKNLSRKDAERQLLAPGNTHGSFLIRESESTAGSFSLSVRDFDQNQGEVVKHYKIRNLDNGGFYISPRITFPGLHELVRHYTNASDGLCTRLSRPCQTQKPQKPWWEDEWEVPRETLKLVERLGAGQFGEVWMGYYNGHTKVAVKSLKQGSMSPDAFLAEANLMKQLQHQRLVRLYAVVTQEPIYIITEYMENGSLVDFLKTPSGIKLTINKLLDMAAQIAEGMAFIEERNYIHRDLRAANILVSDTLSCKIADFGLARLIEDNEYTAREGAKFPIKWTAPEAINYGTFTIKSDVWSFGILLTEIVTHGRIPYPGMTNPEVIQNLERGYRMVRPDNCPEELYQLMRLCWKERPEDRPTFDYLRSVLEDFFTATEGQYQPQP

`C[C@@H](Nc1ncnc2ccc(-c3cnc(Cl)c(NS(C)(=O)=O)c3)cc12)c1ccccc1` [MTX-531, (R)-N-(2-chloro-5-(4-((1-phenylethyl)amino)quinazolin-6-yl)pyridin-3-yl)methane-sulfonamide]: the concentration for half-maximal inhibition (IC50) – broadly, the concentration that gives 50% inhibition – at PPARγ was 2500 nM; at HER2, 2500 nM; at HER4, greater than 10000 nM; on PI3Kβ, 233 nM; on mTOR, 105 nM; against EGFR, 14.7 nM. Further, the IC50 at PI3Kα worked out at 6.4 nM. Moreover, the “% inhibition of control enzyme activity” value at ACE (h) is -2%; on IRK (h) (InsR), 0%; on Lck kinase (h) it was 4%; on PDE3A (h) it was 29%; at PKCalpha (h), -3%.
